Test results reported in patent publication US5108916A, “Process for stereoselectively hydrolyzing, transesterifying or esterifying with immobilized isozyme of lipase from Candida rugosa” (priority 1989, dated 1992).
Like-named read-outs stand apart in the source and are kept apart here.

Legend:
[1] = tested on: Lipase MY; assay: Two phase Lipase MY hydrolysis of HPPA-Me in organic solvent/water mixtures; type: biochemical, Candida rugosa
Experimental: A. 75% organic solvent/25% aqueous buffer--Fifty milligrams of R,S-HPPA-Me was combined in 10 ml Scintillation vial with 7.5 ml of organic solvent, 2.5 ml of 50 mM phosphate buffer pH 6.0, and 5 mg Lipase MY. The reactions were placed on shaker and shaken for a period of 0-43 hours with samples being taken at various times.
B. 25% organic solvent/75% aqueous buffer--Fifty milligrams of R,S-HPPA-Me was combined, in 10 ml Scintillation vial with 2.5 ml of organic solvent, 7.5 ml 50mM phosphate buffer (pH 6.8), and 5 mg Lipase MY. The reactions were shaken for a period of 0-143 hours with samples being taken at various time points.
The data in Table 2 represents the % conversion and % R-HPPA produced using the indicated organic solvents in a two-phase system wherein 75% […] of the total vehicle (solvent) was water and the balance (25%) was organic solvents.

[2] = Conversion of ketoprofen esters in organic solvent/oleic acid media; type: biochemical
Experimental: To optimize the organic solvent used in the presence of oleic acid a variety of organic solvents were used, along with a variety of ketoprofen esters. In this experiment, 50 mg of ketoprofen esters were weighed into flasks, along with 1 ml of oleic acid and 9 ml of an organic solvent. The flasks were capped and incubated at 35° C., 250 rpm, for 10-26 hours before stopping the reaction by first adding 4 ml CHCl3 to solubilize the substrates and products, then filtering through a 0.2 um Gelman Nylaflo filter. Samples were then diluted in methanol and analyzed by HPLC as in Example 18. The experiment was also performed using 200 ul of oleic acid and 10ml buffer, which was acidified, extracted with CHCl3 and analyzed by HPLC as above.
One ml of oleic acid was added, as was 9 ml of buffer (100 mM (NH4)H2 PO4, pH 5.5) or organic solvent. Flasks were placed into a 35° C. incubator and shaken at 250 rpm for 13 hours. Reaction was stopped by adding 5 ml CHCl3 to solubilize the organic material and filtering the solutions using 0.2 um Gelman Nylaflo membranes to remove the enzyme. Samples were analyzed on an ODS-3 RAC column using CH3 OH:10 mM (NH4)H2PO4 (60:40) as eluant, flow rate 4 ml/min, and detection at 254 nm. %ee was determined by the resolution of diastereomeric amides on the above HPLC system, as per Example 18.

[3] = tested on: CSC-2; assay: Effect of additives and solvents on hydrolysis of ketoprofen monoglyceride by CSC-2; type: biochemical, Candida rugosa; conditions: solvent/buffer 1:1 two phase
Experimental: Hydrolysis of ketoprofen-monoglyceride (50mg) was carried out in various DMF-100mM (NH4)H2 PO4 buffer (pH 5.5) mixtures. In each flask a solution of ketoprofen monoglyceride (50mg) in DMF (200ul) was added. DMF was added followed by 100mM (NH4)H2 PO4 buffer. […] After 22 hours, 2%, 5%, and 10% DMF samples were acidified, extracted with CHCl3 (2×10ml) and analyzed. The other samples were analyzed directly as in Example 18. The acid produced decreases with increasing amount of DMF.
Small amounts of DMF were added to the reaction mixture to increase the solubility of KPG. In all cases 100mM ammonium phosphate buffer (pH 5.5) was used and 2% (v/v) detergents were added and the total volume was 10ml.
The buffer reaction (entry #2 in the table) contained enzyme in buffer (2 ml) and the buffer only (entry #1 in the table) reaction contained no enzyme.
The presence of a surfactant like Tween increases the solubility o lipophilic compounds in water. […] Tween 80 was added to make 1% and 2% solution (v/v). Bovine serum albumin (BSA) (10mg) was added to each of two flasks. A solution of 50mg of ketoprofen monoglyceride in 200ul DMF was added to each. After 20 hours at 250 rpm and 35° C. the reaction mixtures were acidified, extracted and analyzed by the usual HPLC procedure as in Example 18.
Various surfactants were used at 2% of the reaction volume to determine their effect on the enzymatic reaction involving the conversion of ketoprofen monoglyceride (KPG) to ketoprofen (KP). […] Flasks were covered with parafilm and incubated in a 35° C. water bath at 250 rpm, typically overnight. Reactions were stopped by acidification, extracted with CHCl3 (2×10 ml). The %acid and %ee were determined by the method of Example 18. It is to be noted that Hydrophile-Lipophile Balance (HLB) values have no apparent bearing on the ability of the surfactant to enhance the conversion of KPG to KP.
75 mg of KPG (in the absence of DMF) was individually weighed into 50 ml Erlenmeyer flasks. […] 9 ml of 100 mM (NH4)H2 PO4, pH 5.5 buffer was added, and the flasks were placed into a 35° C., 250 rpm water bath incubator for 20 hours. The reactions were acidified, extracted with CHCl3 and examined by HPLC as in Example 18. The %ee was determined as per Example 18.
Various amounts of oleic acid or its esters were added, and the reactions stopped at the times indicated, acidified, extracted with CHCl3 and analyzed as in Example 18.
An experiment was performed as in Example 41, but using 100, 200 and 500 ul of olive oil to determine if it would enhance the rate of conversion of KPG to KP. […] After 20 hours, all reactions were acidified, extracted with CHCl3 and analyzed by HPLC as in Example 18. The results are given below:
50 mg of KPG was weighed into Erlenmeyer flasks. […] Flasks were incubated at 35° C., 250 rpm for 23 hours. The reactions were stopped by acidification, extracted with CHCl3, and analyzed by HPLC as in Example 18. The additive is listed along with its percentage composition of glycerides of oleic acid.
To determine the problems associated with having oleic acid or oleate. esters in the reaction media, the following experiment was performed. […] Flasks were placed in a 35° C. incubator at 250 rpm, and the reactions were sampled by taking 200 ul aliquots at various time points. These aliquots were analyzed by HPLC (ODS-3 RAC column, CH3 OH: 10 mM (NH4)H2 PO4 (60:40) eluant, 4 ml/min, 254 nm detection) to determine the course of reaction. When approximately 40% acid was produced, the reactions were stopped by placing the flasks in the -70° C. freezer. Two extraction procedures were utilized to determine the best method of isolating S-Ketoprofen free of oleic acid. The first (listed as Extraction Procedure I in the following table) involved first making the solution basic (pH 10) with NaOH, then extracting with hexane, then CHCl3.

[4] = KPG 50 mg, 100 mg CSC-2 on silica (279-SD-1), 9 ml solvent (or buffer)/1 ml oleic acid, 13 hours
[5] = Buffer 10 ml, OA 200 ul, enzyme not named in Example 55
[6] = Hexane 9 ml, OA 1 ml, 10-26 hours
[7] = Hexane 9 ml, OA 1 ml, * stopped at 10 Hr
[8] = Isooctane 9 ml, OA 1 ml, * stopped at 10 Hr

Compound: CC(C)O [2-propanol]
- % R ([1]; solvent 25%, 43 hr): 0%
- Conversion (ester/acid) ([1]; solvent 25%, 43 hr): 0%
- % R ([1]; solvent 75%, 43 hr): 0%
- Conversion (ester/acid) ([1]; solvent 75%, 43 hr): 0%

Compound: C1=CCCCC1 [Cyclohexene]
- % Acid ([2]; KPEG 50 mg, as E212): 3%
- % ee S-acid ([2]; KPEG, as E212): 52%
- % Acid [2, 4]: 12%
- % ee S-acid ([2]; KPG, as E212): 94%
- EE of S-acid ([3]; 26 hours): 89%
- Relative Rate ([3]; 26 hours, buffer = 100): 146

Compound: CC(C(=O)OCCO)c1cccc(C(=O)c2ccccc2)c1 (centres unmarked) [Ethylene Glycol Ester, ketoprofen ethylene glycol]
- % ee ([2]; Buffer 10 ml, OA 200 ul): 98%
- % Acid [2, 5]: 21%
- % Acid ([2]; CHCl3 9 ml, OA 1 ml): 0%
- % Acid [2, 6]: 29%
- % ee [2, 7]: 95%
- % Acid ([2]; Isooctane 9 ml, OA 1 ml): 47%
- % ee [2, 8]: 98%
- % Acid ([2]; Toluene 9 ml, OA 1 ml): 0%

Compound: CCO [ethyl alcohol]
- Conversion (ester/acid) [1]: 0%
- % R ([1]; solvent 25%, 43 hr): 0%
- % R ([1]; solvent 75%, 43 hr): 0%

Compound: ClC(Cl)(Cl)Cl [carbon tetrachloride]
- EE of S-acid ([3]; 26 hours): 95%
- Relative Rate ([3]; 26 hours, buffer = 100): 48
- % R ([1]; solvent 25%, 2.7 hr): 79%
- Conversion (ester/acid) ([1]; solvent 25%, 2.7 hr): 58%
- % R ([1]; solvent 75%, 2.7 hr): 76%
- Conversion (ester/acid) ([1]; solvent 75%, 2.7 hr): 61%

Compound: CC(Cl)(Cl)Cl [1,1,1-Trichloroethane]
- % Acid ([2]; KPEG 50 mg, as E212): 0%
- % ee S-acid ([2]; KPEG, as E212): 0%
- % Acid [2, 4]: 1%
- % ee S-acid ([2]; KPG, as E212): 0%
- EE of S-acid ([3]; 26 hours): 75%
- Relative Rate ([3]; 26 hours, buffer = 100): 25

Compound: CC(C(=O)OCCOCCO)c1cccc(C(=O)c2ccccc2)c1 (centres unmarked) [Diethylene glycol ester, Diethylene Glycol Ester of Ketoprofen]
- % ee ([2]; Buffer 10 ml, OA 200 ul): 30%
- % Acid [2, 5]: 32%
- % Acid [2, 6]: 56%
- % ee [2, 7]: 13%
- % Acid ([2]; Isooctane 9 ml, OA 1 ml): 60%
- % ee [2, 8]: 17%

Compound: CC(C)c1ccccc1 [cumene]
- EE of S-acid ([3]; 26 hours): 86%
- Relative Rate ([3]; 26 hours, buffer = 100): 91
- % R ([1]; solvent 25%, 2.7 hr): 100%
- Conversion (ester/acid) ([1]; solvent 25%, 2.7 hr): 35%

Compound: CC(C(=O)OCCCl)c1cccc(C(=O)c2ccccc2)c1 (centres unmarked) [2-Chloroethyl Ester, 2-chloroethyl ester of ketoprofen]
- % ee ([2]; Buffer 10 ml, OA 200 ul): 96%
- % Acid [2, 5]: 18%
- % Acid ([2]; CHCl3 9 ml, OA 1 ml): 2%
- % ee ([2]; CHCl3 9 ml, OA 1 ml): 3%
- % Acid [2, 6]: 7%
- % ee [2, 7]: 92%
- % Acid ([2]; Isooctane 9 ml, OA 1 ml): 18%
- % ee [2, 8]: 97%
- % Acid ([2]; Toluene 9 ml, OA 1 ml): 1%
- % ee ([2]; Toluene 9 ml, OA 1 ml): < 1%

Compound: ClCC(Cl)Cl [1,1,2 trichloroethane]
- Relative Rate ([3]; 16 hour reactions): 0
- % R ([1]; solvent 25%, 43 hr): 79%
- Conversion (ester/acid) ([1]; solvent 25%, 43 hr): 29%

Compound: C1=CCCCCCC1 [Cyclooctene]
- % Acid ([2]; KPEG 50 mg, as E212): 16%
- % ee S-acid ([2]; KPEG, as E212): 92%
- % Acid [2, 4]: 38%
- % ee S-acid ([2]; KPG, as E212): 98%
- EE of S-acid ([3]; 26 hours): 95%
- Relative Rate ([3]; 26 hours, buffer = 100): 387
